± gives the expanded uncertainty stated by the source.
Conditions: Liquid, Hot wire method

COC [dimethyl ether]
thermal conductivity (234.04 K, 5100 kPa): 0.1561 ± 0.0033 W/m/K | thermal conductivity (234.2 K, 600 kPa): 0.1534 ± 0.0031 W/m/K | thermal conductivity (234.29 K, 600 kPa): 0.153 ± 0.0031 W/m/K | thermal conductivity (234.33 K, 10000 kPa): 0.16 ± 0.0033 W/m/K | thermal conductivity (234.43 K, 29800 kPa): 0.1704 ± 0.0035 W/m/K | thermal conductivity (234.44 K, 30000 kPa): 0.1709 ± 0.0035 W/m/K | thermal conductivity (234.58 K, 600 kPa): 0.1538 ± 0.0031 W/m/K | thermal conductivity (234.66 K, 5300 kPa): 0.1568 ± 0.0033 W/m/K | thermal conductivity (234.7 K, 20200 kPa): 0.1655 ± 0.0034 W/m/K | thermal conductivity (234.71 K, 10400 kPa): 0.1605 ± 0.0033 W/m/K | thermal conductivity (234.72 K, 5300 kPa): 0.1562 ± 0.0032 W/m/K | thermal conductivity (234.79 K, 30100 kPa): 0.1703 ± 0.0035 W/m/K | thermal conductivity (235 K, 20100 kPa): 0.1654 ± 0.0034 W/m/K | thermal conductivity (235.27 K, 20200 kPa): 0.1655 ± 0.0034 W/m/K | thermal conductivity (235.32 K, 10700 kPa): 0.1598 ± 0.0033 W/m/K | thermal conductivity (253.99 K, 10200 kPa): 0.1528 ± 0.0031 W/m/K | thermal conductivity (254.02 K, 600 kPa): 0.1422 ± 0.0029 W/m/K | thermal conductivity (254.11 K, 20400 kPa): 0.1582 ± 0.0032 W/m/K | thermal conductivity (254.12 K, 30200 kPa): 0.1633 ± 0.0033 W/m/K | thermal conductivity (254.16 K, 600 kPa): 0.1427 ± 0.0029 W/m/K | thermal conductivity (254.2 K, 20100 kPa): 0.1579 ± 0.0032 W/m/K | thermal conductivity (254.22 K, 10400 kPa): 0.1529 ± 0.0031 W/m/K | thermal conductivity (254.34 K, 30300 kPa): 0.1643 ± 0.0033 W/m/K | thermal conductivity (254.37 K, 20100 kPa): 0.1583 ± 0.0032 W/m/K | thermal conductivity (254.42 K, 600 kPa): 0.1427 ± 0.0029 W/m/K | thermal conductivity (254.42 K, 5100 kPa): 0.1467 ± 0.003 W/m/K | thermal conductivity (254.81 K, 10100 kPa): 0.1522 ± 0.0031 W/m/K | thermal conductivity (254.88 K, 5100 kPa): 0.1466 ± 0.003 W/m/K | thermal conductivity (255.08 K, 5000 kPa): 0.1471 ± 0.003 W/m/K | thermal conductivity (257.35 K, 29900 kPa): 0.164 ± 0.0033 W/m/K | thermal conductivity (273.93 K, 5000 kPa): 0.1396 ± 0.0029 W/m/K | thermal conductivity (274.08 K, 5100 kPa): 0.1396 ± 0.0029 W/m/K | thermal conductivity (274.48 K, 5000 kPa): 0.1404 ± 0.0029 W/m/K | thermal conductivity (274.56 K, 29800 kPa): 0.1585 ± 0.0032 W/m/K | thermal conductivity (274.57 K, 30400 kPa): 0.1579 ± 0.0032 W/m/K | thermal conductivity (274.6 K, 20000 kPa): 0.1523 ± 0.0031 W/m/K | thermal conductivity (274.9 K, 10500 kPa): 0.1456 ± 0.003 W/m/K | thermal conductivity (274.9 K, 20300 kPa): 0.1522 ± 0.0031 W/m/K | thermal conductivity (275.12 K, 20300 kPa): 0.1523 ± 0.0031 W/m/K | thermal conductivity (275.22 K, 10200 kPa): 0.1452 ± 0.003 W/m/K | thermal conductivity (275.3 K, 30600 kPa): 0.1582 ± 0.0032 W/m/K | thermal conductivity (275.31 K, 700 kPa): 0.1342 ± 0.0028 W/m/K | thermal conductivity (275.74 K, 700 kPa): 0.1343 ± 0.0028 W/m/K | thermal conductivity (276.02 K, 10500 kPa): 0.1459 ± 0.003 W/m/K | thermal conductivity (276.44 K, 700 kPa): 0.1347 ± 0.0028 W/m/K | thermal conductivity (293.79 K, 5100 kPa): 0.1305 ± 0.0027 W/m/K | thermal conductivity (293.8 K, 800 kPa): 0.1249 ± 0.0026 W/m/K | thermal conductivity (294.15 K, 800 kPa): 0.1252 ± 0.0026 W/m/K | thermal conductivity (294.16 K, 10000 kPa): 0.1362 ± 0.0028 W/m/K | thermal conductivity (294.22 K, 10200 kPa): 0.1364 ± 0.0028 W/m/K | thermal conductivity (294.3 K, 29800 kPa): 0.1495 ± 0.003 W/m/K | thermal conductivity (294.45 K, 800 kPa): 0.1248 ± 0.0026 W/m/K | thermal conductivity (294.45 K, 4900 kPa): 0.1305 ± 0.0027 W/m/K | thermal conductivity (294.59 K, 29900 kPa): 0.1486 ± 0.003 W/m/K | thermal conductivity (294.68 K, 20600 kPa): 0.1417 ± 0.0029 W/m/K | thermal conductivity (294.84 K, 5200 kPa): 0.1307 ± 0.0027 W/m/K | thermal conductivity (295.13 K, 20300 kPa): 0.1417 ± 0.0029 W/m/K | thermal conductivity (295.22 K, 10000 kPa): 0.1356 ± 0.0028 W/m/K | thermal conductivity (296.32 K, 20200 kPa): 0.1415 ± 0.0029 W/m/K | thermal conductivity (314.01 K, 5100 kPa): 0.1191 ± 0.0024 W/m/K | thermal conductivity (314.06 K, 1000 kPa): 0.1143 ± 0.0023 W/m/K | thermal conductivity (314.11 K, 5200 kPa): 0.1189 ± 0.0024 W/m/K | thermal conductivity (314.39 K, 1000 kPa): 0.1145 ± 0.0024 W/m/K | thermal conductivity (314.39 K, 5100 kPa): 0.1195 ± 0.0024 W/m/K | thermal conductivity (314.43 K, 10200 kPa): 0.1242 ± 0.0025 W/m/K | thermal conductivity (314.6 K, 30100 kPa): 0.1385 ± 0.0028 W/m/K | thermal conductivity (314.66 K, 1000 kPa): 0.1137 ± 0.0023 W/m/K | thermal conductivity (314.81 K, 10200 kPa): 0.1241 ± 0.0025 W/m/K | thermal conductivity (314.88 K, 30000 kPa): 0.1382 ± 0.0028 W/m/K | thermal conductivity (315.01 K, 20400 kPa): 0.1313 ± 0.0027 W/m/K | thermal conductivity (315.06 K, 10100 kPa): 0.1242 ± 0.0025 W/m/K | thermal conductivity (315.07 K, 20100 kPa): 0.1318 ± 0.0027 W/m/K | thermal conductivity (315.37 K, 30400 kPa): 0.1384 ± 0.0028 W/m/K | thermal conductivity (315.55 K, 20000 kPa): 0.1318 ± 0.0027 W/m/K | thermal conductivity (333.73 K, 1500 kPa): 0.1079 ± 0.0022 W/m/K | thermal conductivity (333.92 K, 5200 kPa): 0.1113 ± 0.0023 W/m/K | thermal conductivity (334.03 K, 1500 kPa): 0.1075 ± 0.0022 W/m/K | thermal conductivity (334.09 K, 30000 kPa): 0.1283 ± 0.0028 W/m/K | thermal conductivity (334.31 K, 20200 kPa): 0.1229 ± 0.0025 W/m/K | thermal conductivity (334.38 K, 30100 kPa): 0.1287 ± 0.0027 W/m/K | thermal conductivity (334.47 K, 1500 kPa): 0.1078 ± 0.0022 W/m/K | thermal conductivity (334.55 K, 5100 kPa): 0.1108 ± 0.0023 W/m/K | thermal conductivity (334.7 K, 10200 kPa): 0.1156 ± 0.0024 W/m/K | thermal conductivity (334.79 K, 20200 kPa): 0.1224 ± 0.0025 W/m/K | thermal conductivity (334.85 K, 5200 kPa): 0.1116 ± 0.0023 W/m/K | thermal conductivity (334.9 K, 30200 kPa): 0.1288 ± 0.0027 W/m/K | thermal conductivity (334.91 K, 10200 kPa): 0.1154 ± 0.0024 W/m/K | thermal conductivity (335.09 K, 30400 kPa): 0.1294 ± 0.0027 W/m/K | thermal conductivity (335.29 K, 20100 kPa): 0.1228 ± 0.0025 W/m/K | thermal conductivity (335.37 K, 10100 kPa): 0.1151 ± 0.0024 W/m/K | thermal conductivity (335.72 K, 20000 kPa): 0.1223 ± 0.0025 W/m/K | thermal conductivity (335.76 K, 10300 kPa): 0.1146 ± 0.0023 W/m/K | thermal conductivity (353.73 K, 10300 kPa): 0.1059 ± 0.0022 W/m/K | thermal conductivity (353.93 K, 30500 kPa): 0.1206 ± 0.0025 W/m/K | thermal conductivity (353.97 K, 30100 kPa): 0.1208 ± 0.0025 W/m/K | thermal conductivity (354.06 K, 10200 kPa): 0.1053 ± 0.0022 W/m/K | thermal conductivity (354.1 K, 20400 kPa): 0.1145 ± 0.0023 W/m/K | thermal conductivity (354.15 K, 5800 kPa): 0.0998 ± 0.0021 W/m/K | thermal conductivity (354.21 K, 2300 kPa): 0.0973 ± 0.002 W/m/K | thermal conductivity (354.29 K, 5300 kPa): 0.1005 ± 0.0021 W/m/K | thermal conductivity (354.45 K, 2300 kPa): 0.097 ± 0.002 W/m/K | thermal conductivity (354.59 K, 30100 kPa): 0.1208 ± 0.0025 W/m/K | thermal conductivity (354.86 K, 2300 kPa): 0.0971 ± 0.002 W/m/K | thermal conductivity (354.97 K, 5200 kPa): 0.1 ± 0.0021 W/m/K | thermal conductivity (355.08 K, 20000 kPa): 0.1141 ± 0.0023 W/m/K | thermal conductivity (355.18 K, 2300 kPa): 0.0971 ± 0.002 W/m/K | thermal conductivity (355.36 K, 20100 kPa): 0.1142 ± 0.0023 W/m/K | thermal conductivity (355.46 K, 5200 kPa): 0.1012 ± 0.0021 W/m/K | thermal conductivity (374.25 K, 10700 kPa): 0.0988 ± 0.002 W/m/K | thermal conductivity (374.25 K, 20500 kPa): 0.1071 ± 0.0022 W/m/K | thermal conductivity (374.3 K, 30400 kPa): 0.1129 ± 0.0023 W/m/K | thermal conductivity (374.62 K, 30300 kPa): 0.1133 ± 0.0023 W/m/K | thermal conductivity (374.81 K, 29900 kPa): 0.1135 ± 0.0023 W/m/K | thermal conductivity (374.85 K, 3300 kPa): 0.0871 ± 0.0018 W/m/K | thermal conductivity (374.85 K, 5100 kPa): 0.0908 ± 0.0019 W/m/K | thermal conductivity (374.91 K, 5000 kPa): 0.0908 ± 0.0019 W/m/K | thermal conductivity (375.13 K, 3300 kPa): 0.0869 ± 0.0019 W/m/K | thermal conductivity (375.27 K, 5000 kPa): 0.0911 ± 0.0019 W/m/K | thermal conductivity (375.38 K, 3300 kPa): 0.0867 ± 0.0018 W/m/K | thermal conductivity (375.68 K, 20200 kPa): 0.1065 ± 0.0022 W/m/K | thermal conductivity (376.02 K, 20000 kPa): 0.1065 ± 0.0022 W/m/K | thermal conductivity (376.38 K, 10600 kPa): 0.0976 ± 0.002 W/m/K
